Experiment [1] concerns Rattus norvegicus. As to the kind of experiment: Tested for the effect on calcium homeostasis in rats dosed up to 100 ug/kg daily for 7 days; Compound was found to show no effect. The class given is functional, organism-based.
The subject of experiment [2] is Rattus norvegicus. The experiment in a line: Tested for the hypercalciuria effect at 0.5 ug/kg by 1,25-(OH)2D3 for 7 days up to 100 ug/kg; compound produced marked hypercalciuria at 0.5 ug/kg. The class given is functional, organism-based.

Calls of active or inactive are those of the source. No cut-off for these calls is given here.

This is an account of results in ChEMBL document CHEMBL1126543, “1,24S-dihydroxy-26,27-cyclo-22-yne-vitamin D3: the side chain triple bond analogue of MC 903 (calcipotriol)” (Bioorg Med Chem Lett, 1993).

For `C=C1/C(=C\C=C2/CCC[C@]3(C)[C@@H]([C@H](C)C#C[C@@H](O)C4CC4)CC[C@@H]23)C[C@@H](O)C[C@@H]1O`, in the experiment with Rattus norvegicus [1], the result was inactive. The Activity result with Rattus norvegicus [2] is “Marked hypercalciuria at 0.5 ug/kg”.
